Test results: article PMC9469100, “Turning Nonselective Inhibitors of Type I Protein Arginine Methyltransferases into Potent and Selective Inhibitors of Protein Arginine Methyltransferase 4 through a Deconstruction–Reconstruction and Fragment-Growing Approach” (Journal of Medicinal Chemistry, 2022)
Values belong to the molecule of their own block, whether it stands above or below them.

Experiments:
[1] = molecular target: T1, SUV420H1 (Homo sapiens, UniProt Q4FZB7); test: HotSpot KMT activity assay, SUV420H1; type: biochemical; conditions: 10-dose mode, 3-fold dilution starting at 100 µM; read-out: ref. cmpd. IC50 (µM), SUV420H1
T1 construct: SUV420H1-tv2 (residues 2–393); C-terminus; N-terminal GST-tag; GST (N); purchased Reaction Biology Corporation
T1 sequence (Q4FZB7 2-393 isoform Q4FZB7-2): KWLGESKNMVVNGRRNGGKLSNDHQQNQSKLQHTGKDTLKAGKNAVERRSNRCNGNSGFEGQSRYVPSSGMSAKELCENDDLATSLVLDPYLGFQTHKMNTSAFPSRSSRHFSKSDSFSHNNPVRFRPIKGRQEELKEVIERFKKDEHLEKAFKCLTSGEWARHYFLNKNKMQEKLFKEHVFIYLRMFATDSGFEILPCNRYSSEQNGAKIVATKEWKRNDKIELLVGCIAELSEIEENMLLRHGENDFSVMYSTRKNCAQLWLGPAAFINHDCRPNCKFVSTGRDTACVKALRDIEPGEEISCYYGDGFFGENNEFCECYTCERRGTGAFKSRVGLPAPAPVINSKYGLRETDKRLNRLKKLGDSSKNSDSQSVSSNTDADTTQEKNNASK
Protocol: (§1) Then, ^3H-SAM (final concentration 1 μM) was delivered into the reaction mixture to initiate the reaction. After incubation for 60 min at 30 °C, the reaction mixture was delivered to filter-paper for detection (as assessed by scintillation). […] No inhibitor control (DMSO) was considered as 100% enzyme activity. Data were analyzed using Excel and GraphPad Prism 6.0 software (GraphPad Software Inc., San Diego, CA). Values obtained for each compound are mean ± SD determined for two separate experiments.

[2] = molecular target: SMYD3 (Homo sapiens, UniProt Q9H7B4); test: HotSpot KMT activity assay, SMYD3; type: biochemical; conditions: 10-dose mode, 3-fold dilution starting at 100 µM; read-out: ref. cmpd. IC50 (µM), SMYD3
Chain of SMYD3 (Q9H7B4 whole entry): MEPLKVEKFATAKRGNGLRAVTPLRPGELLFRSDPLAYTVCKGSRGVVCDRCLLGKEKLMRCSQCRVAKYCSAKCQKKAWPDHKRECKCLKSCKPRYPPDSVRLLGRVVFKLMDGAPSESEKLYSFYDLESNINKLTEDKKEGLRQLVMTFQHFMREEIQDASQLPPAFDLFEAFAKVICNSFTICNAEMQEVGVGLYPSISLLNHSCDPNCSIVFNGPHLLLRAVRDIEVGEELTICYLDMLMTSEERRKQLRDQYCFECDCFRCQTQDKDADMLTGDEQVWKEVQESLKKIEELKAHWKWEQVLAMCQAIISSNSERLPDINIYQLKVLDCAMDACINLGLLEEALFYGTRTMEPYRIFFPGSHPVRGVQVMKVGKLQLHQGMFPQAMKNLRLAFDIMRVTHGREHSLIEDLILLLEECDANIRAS
Protocol: as §1

[3] = molecular target: T2, MLL1 complex (Homo sapiens, UniProt Q03164); test: HotSpot KMT activity assay, MLL1; type: biochemical; conditions: 10-dose mode, 3-fold dilution starting at 100 µM; read-out: ref. cmpd. IC50 (µM), MLL1
T2 construct: including MLL1 residues 3745–3969, C-terminus; His (N); purchased Reaction Biology Corporation
Protocol: as §1

[4] = molecular target: T3, SUV39H2 (Homo sapiens, UniProt Q9H5I1); test: HotSpot KMT activity assay, SUV39H2; type: biochemical; conditions: 10-dose mode, 3-fold dilution starting at 100 µM; read-out: ref. cmpd. IC50 (µM), SUV39H2
T3 construct: SUV39H2 (residues 46–410, C-terminus); N-terminal fusion protein with a C-terminal His-tag; His (C); purchased Reaction Biology Corporation
T3 sequence (Q9H5I1 46-410): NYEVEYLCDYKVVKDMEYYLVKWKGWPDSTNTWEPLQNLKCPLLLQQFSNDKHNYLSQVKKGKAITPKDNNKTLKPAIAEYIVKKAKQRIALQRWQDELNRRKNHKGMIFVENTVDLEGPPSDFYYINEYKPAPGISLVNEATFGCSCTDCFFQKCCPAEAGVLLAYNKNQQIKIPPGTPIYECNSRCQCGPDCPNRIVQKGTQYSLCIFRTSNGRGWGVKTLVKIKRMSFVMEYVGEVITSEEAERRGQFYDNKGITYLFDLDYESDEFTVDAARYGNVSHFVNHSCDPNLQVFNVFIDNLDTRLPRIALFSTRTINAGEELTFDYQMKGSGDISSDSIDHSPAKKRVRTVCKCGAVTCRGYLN
Protocol: as §1

[5] = molecular target: T4, SET7/9 (Homo sapiens, UniProt Q8WTS6); test: HotSpot KMT activity assay, SET7/9; type: biochemical; conditions: 10-dose mode, 3-fold dilution starting at 100 µM; read-out: ref. cmpd. IC50 (µM), SET7/9
T4 construct: SET7/9 (residues 2–366, C-terminus); with a N-terminal GST-tag and a C-terminal His-tag; GST (N); His (C); purchased Reaction Biology Corporation
T4 sequence (Q8WTS6 2-366): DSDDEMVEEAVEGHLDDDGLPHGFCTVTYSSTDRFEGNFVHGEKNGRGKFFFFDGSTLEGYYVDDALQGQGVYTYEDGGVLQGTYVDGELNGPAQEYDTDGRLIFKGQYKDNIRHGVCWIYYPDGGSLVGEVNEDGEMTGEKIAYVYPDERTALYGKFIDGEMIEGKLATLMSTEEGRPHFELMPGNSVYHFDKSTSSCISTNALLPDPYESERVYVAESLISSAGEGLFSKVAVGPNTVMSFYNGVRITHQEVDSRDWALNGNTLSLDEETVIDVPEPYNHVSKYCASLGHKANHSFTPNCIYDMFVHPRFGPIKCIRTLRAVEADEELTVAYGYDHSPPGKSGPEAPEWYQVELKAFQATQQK
Protocol: as §1

[6] = tested on: MCF7 cells; test: Cell proliferation assay (CellTiter-Glo), MCF7; type: cell-based, human; conditions: 10 μM TP064; 50 μM 12h; up to day 8
Protocol: (§2) HEK293T cells were seeded into 96-well plates at the density of 250 cells/well in 100 μL of medium. MCF7 cells were seeded into 96-well plates at the density of 1000 cells/well in 100 μL of medium. Cell proliferation was analyzed at day 0, day 2, day 4, day 6, and day 8, and the medium was changed at day 4. The proliferation analysis was based on viability as determined by CellTiter-Glo (#G7572, Promega) according to the manufacturer’s instructions. Triple independent repeats were conducted.

[7] = tested on: HEK293T cells; test: Cell proliferation assay (CellTiter-Glo), HEK293T; type: cell-based, human; conditions: 10 μM TP064; 50 μM 12h; up to day 8
Protocol: as §2

[8] = tested on: PRMT4 (HEK293T cells); test: Western blot with pan-PRMT4 substrate antibody, HEK293T; conditions: TP-064 concentrations higher than 10 μM
[9] = tested on: PRMT4 (MCF7 cells); test: Western blot with pan-PRMT4 substrate antibody, MCF7; conditions: 12h 10 and 50 μM, TP-064 10 μM; 4 and 8 days; PRMT4sub immunoblot
[10] = tested on: PRMT5; parameters: method as in PMID 25893041; conditions: cited from earlier work
[11] = tested on: PRMT7; parameters: method as in PMID 25893041; conditions: cited from earlier work
[12] = molecular target: Mus musculus PRMT4 PRMT core (mmPRMT4_(130–487) or mmPRMT4_(130–497)) (Mus musculus) (UniProt Q9WVG6); test: crystal structure; cocrystallization of mmPRMT4 with compounds 12a-12c and 12f-12h, hanging drop vapor diffusion, 293 K, space group P2_(1)2_(1)2, four monomers in the asymmetric unit
[13] = molecular target: Mus musculus PRMT6, residues 34–378 (Mus musculus) (UniProt Q6NZB1); test: crystal structure; cocrystallization of mmPRMT6 with compounds 12a, 12c and 12f, hanging drop vapor diffusion, 293 K, space group P2_(1), two molecules in the asymmetric unit

Molecule: Nc1ncnc2c1ncn2[C@@H]1O[C@H](CSCC[C@H](N)C(=O)O)[C@@H](O)[C@H]1O [SAH, S-5′-adenosyl-L-homocysteine, reference compound]
IC50 [1]: 46.5 µM
IC50 [2]: 18.7 µM
IC50 [3]: 0.464 µM
IC50 [4]: 32.7 µM
IC50 [5]: 139 µM

Molecule: CNCCN1CCC(c2cc(CN(C)C(=O)c3cccc(Oc4ccccc4)c3)ccn2)CC1 [TP-064, reference compound]
proliferation of MCF7 cells [6]: markedly decreased
proliferation of HEK293T cells [7]: no effect was observed
cell death [8]: led to cell death
arginine methylation levels in MCF7 cells [9]: profoundly affected

Molecule: CC(C)N(CCCNC(=O)Nc1ccc(C(C)(C)C)cc1)C[C@H]1O[C@@H](n2ccc3c(N)ncnc32)[C@H](O)[C@@H]1O [compound 3]
IC50 [10]: 0.52 µM
IC50 [11]: 7.5 µM

stoichiometry N [12]: 4
Molecule: Mus musculus PRMT4 PRMT core (mmPRMT4_(130–487) or mmPRMT4_(130–497)) (from UniProt Q9WVG6 130-487) (domain or fragment)

stoichiometry N [13]: 2
Molecule: Mus musculus PRMT6, residues 34–378 (from UniProt Q6NZB1 34-378) (domain or fragment)
